The results in this text go back to patent US4281121A, “1,3,4-Thiadiazole-2-carboxylic acid derivatives, process for making the same and fungicidal and nematocidal compositions containing same” (Schering Aktiengesellschaft, priority 1978, dated 1981).

Each structure is given as a SMILES string. Where two headings read alike, the source gives them in different places.

For experiment [1], the system named is Plasmopara viticola. In words: Prophylactic leaf treatment of grapevines in the hothouse against Plasmopara viticola. The experiment is classed as in vivo. Here is the method:
Effects of prophylactic leaf treatment of grapevines in the hothouse against Plasmopara viticola
Young grapevine plants having from 5 to 8 leaves were sprayed dripping wet with the concentrations of active agents stated in the table below. After drying of the spray deposit the leaves were sprayed with an aqueous suspension of sporangia of the fungus (about 20,000 per ml); the spraying was applied to the bottom side of the leaves. The plants were then immediately incubated in a hothouse at a temperature of 22° to 24° C. and at maximum water saturation in the atmosphere. Beginning with the second day the humidity of the air was reduced for 3 to 4 days to normal level (30 to 70% saturation) and was then maintained for another day on the level of full saturation. Subsequently, the percentage portion of the fungus infested surface of each leaf was noted and the average per treatment was calculated in order to determine the fungicidal activity. This was done on the basis of the following formula: [formula]
The active compounds were applied in the form of a 20% concentration spray powder.

For experiment [2], the system named is Fusarium avenaceum. Put plainly: Threshold concentration test in case of Fusarium avenaceum (infested soil, garden peas). The format is in vivo. The settings on record: for number of sound peas: 20 grains per dish, 18 days at 20-24° C.; for root evaluation (1-4): 18 days. As to the method: Threshold concentration test in case of Fusarium avenaceum
A 20% pulverulent active agent of the type further identified in the table below was mixed in uniform manner with a soil which had been heavily infested with Fusarium avenaceum. The thus treated soil was then placed into clay dishes of a capacity of 0.5 l of earth. Each dish was seeded without any intervening time with 20 grains of garden peas (Pisum sativum L. convar. medullare Alef.) of the type "Wunder von Kelvedon". After a cultivation time of 18 days at 20° to 24° C. in a hot house the number of sound peas was determined and a root evaluation was carried out. The active agents employed, the amounts and results appear from the following table.
(§1) The root evaluation was carried out on a scale from 1 to 4 as follows: […]

Experiment [3] has as its system Tilletia caries. Put plainly: Treatment of oat seeds infested with Tilletia caries (spore germination). The format is in vivo.
In experiment [4] the test system is Pythium ultimum. In words: Threshold concentration test for use of the compounds against Pythium ultimum (infested soil, garden peas). The experiment is classed as in vivo. More on the design: key to root evaluation (1-4): 4: white roots without fungous necrosis; 3: white roots, minor fungous necrosis; 2: brown roots, already more pronounced fungous necrosis; 1: heavy fungous necrosis, roots rotted. The note with it: for root evaluation (1-4): 3 weeks; for number of sound peas: 20 grains per dish, 3 weeks at 20-24° C. As to the method:
Threshold concentration test for use of the compounds against Pythium ultimum
A 20% concentration of certain pulverulent active agents as listed below were mixed in uniform manner into a soil which had been heavily infested by Pythium ultimum. The thus treated soil was then placed into clay dishes of a capacity of 0.5 l earth. Without any intermediate time lapse 20 grain of garden peas (Pisum sativum L. convar. medullare Alef.) of the type "Wunder von Kelvedon" were then seeded into each of the clay dishes. After a cultivation period of three weeks at 20° to 24° C. in a hothouse the number of sound peas was determined and a root evaluation was carried out. The active agents amounts and results appear from the following table.
as §1

Experiment [5] deals with Helminthosporium gramineum. In words: Seed treatment in open field tests for infestation by Helminthosporium gramineum (barley). The settings on record: summer barley, about 3 months. The experiment is classed as in vivo. As to the method:
Seed treatment in open field tests for infestation by Helminthosporium gramineum
The active agents were used in the form of pulverulent compositions. After about 8 months in case of winter barley and after about 3 months in case of summer barley the infested plants were counted and the activity was calculated by the formula [formula]

In experiment [6] the test system is Helminthosporium gram. The settings on record: about 5 weeks.
The mark [7] stands for this setting: concentration of active agent 0.005 (unit not given).
Where [8] appears, read: concentration of active agent 0.025 (unit not given).
Setting [9] is: 25 g active agent/100 kg barley.
Setting [10] is: 50 g active agent/100 kg barley.
[11] abbreviates: 100 g active agent/100 kg barley.
The mark [12] stands for this setting: concentration of active agent 0.001 (unit not given).

As to `CCCCS(=O)(=O)c1nnc(C#N)s1` [5-butylsulfonyl-1,3,4-thiadiazole-2-carbonitrile], the “% activity” value was determined as 91% in experiment [1] (setting [7]), 93% in experiment [1] (setting [8]), 95% in experiment [3] (20 g active agent per 100 kg) and 100% in experiment [3] (50 g active agent per 100 kg). Besides, the “number of sound peas” value in experiment [2] (25 mg/l soil) is 18; in experiment [2] (50 mg/l soil), 20; in experiment [2] (100 mg/l soil), 20. For the same compound, the “root evaluation (1-4)” value in experiment [2] (25 mg/l soil), in experiment [2] (50 mg/l soil) and in experiment [2] (100 mg/l soil) was 4 throughout.
Turning to `CCCCS(=O)(=O)c1nnc(C(N)=O)s1` [5-butylsulfonyl-1,3,4-thiadiazole-2-carboxamide], the “root evaluation (1-4)” value in experiment [4] (20 mg/l soil) stood at 1; in experiment [4] (40 mg/l soil), 4; in experiment [4] (80 mg/l soil), 4; in experiment [2] (25 mg/l soil) it was 2; in experiment [2] (50 mg/l soil), 3; in experiment [2] (100 mg/l soil) it was 4. Also, the “number of sound peas” value in experiment [4] (20 mg/l soil) worked out at 11; in experiment [4] (40 mg/l soil), 20; in experiment [4] (80 mg/l soil), 18; in experiment [2] (25 mg/l soil), 15; in experiment [2] (50 mg/l soil) it was 12; in experiment [2] (100 mg/l soil), 16. Besides, the “% activity” value was 73% in experiment [1] (setting [7]) and 90% in experiment [1] (setting [8]).
In the case of `CCNC(=O)c1nnc(S(=O)(=O)CC)s1` [5-ethylsulfonyl-1,3,4-thiadiazole-2-carboxylic acid ethylamide], the “% activity” value came out at 98% in experiment [5] (setting [9]); 99.5% in experiment [5] (setting [10]); 100% in experiment [5] (setting [11]); 98% in experiment [1] (setting [8]); 100% in experiment [6] (20 g active agent per 100 kg); 100% in experiment [6] (50 g active agent per 100 kg). Moreover, the “% activity” value in experiment [3] (10 g active agent per 100 kg) stood at 99.3%; in experiment [3] (20 g active agent per 100 kg), 100%; in experiment [3] (50 g active agent per 100 kg) it was 100%. Moreover, the “root evaluation (1-4)” value in experiment [4] (20 mg/l soil), in experiment [4] (40 mg/l soil) and in experiment [4] (80 mg/l soil) was 4 each time. In addition, the “number of sound peas” value in experiment [4] (20 mg/l soil) was determined as 15; in experiment [4] (40 mg/l soil) it was 16; in experiment [4] (80 mg/l soil), 16.
In the case of `CCS(=O)(=O)c1nnc(C(=O)N2CCOCC2)s1` [5-ethylsulfonyl-1,3,4-thiadiazole-2-carboxylic acid-(N,N-3-oxapentamethyleneamide], the “% activity” value in experiment [5] (setting [10]) amounted to 99.3%; in experiment [6] (10 g active agent per 100 kg), 99%; in experiment [6] (20 g active agent per 100 kg) it was 100%; in experiment [6] (50 g active agent per 100 kg), 100%; in experiment [3] (50 g active agent per 100 kg), 100%.
As for `CCCCN(C)C(=O)c1nnc(S(=O)(=O)CC)s1` [5-ethylsulfonyl-1,3,4-thiadiazole-2-carboxylic acid-(N-butyl,N-methyl)-amide], the “% activity” value was 94% in experiment [5] (setting [9]); 96.9% in experiment [5] (setting [10]); 99.5% in experiment [5] (setting [11]); 100% in experiment [1] (setting [12]); 100% in experiment [1] (setting [7]); 100% in experiment [1] (setting [8]). Besides, the “% activity” value in experiment [6] (20 g active agent per 100 kg) is 100%; in experiment [6] (50 g active agent per 100 kg), 100%; in experiment [3] (10 g active agent per 100 kg), 98%; in experiment [3] (20 g active agent per 100 kg), 100%; in experiment [3] (50 g active agent per 100 kg), 100%.
On to `CCS(=O)(=O)c1nnc(C(=O)NC2CC2)s1` [5-ethylsulfonyl-1,3,4-thiadiazole-2-carboxylic acid-cyclopropylamide], for which the “% activity” value is listed as 100% in experiment [5] (200 g active agent/100 kg barley), 85% in experiment [3] (10 g active agent per 100 kg), 100% in experiment [3] (20 g active agent per 100 kg) and 100% in experiment [3] (50 g active agent per 100 kg).
For `COCCNC(=O)c1nnc([S+](C)[O-])s1` (stereo not shown) [5-methylsulfinyl-1,3,4-thiadiazole-2-carboxylic acid-(2-methoxyethyl)-amide], the “% activity” value in experiment [1] (setting [8]) is recorded as 96%; in experiment [6] (10 g active agent per 100 kg), 75%; in experiment [6] (20 g active agent per 100 kg), 97%; in experiment [6] (50 g active agent per 100 kg) it was 100%.
Consider `C[S+]([O-])c1nnc(C(=O)N2CCC2)s1` (stereo not shown) [5-methylsulfinyl-1,3,4-thiadiazole-2-carboxylic acid-N,N-trimethylenamide], for which the “root evaluation (1-4)” value was 2 in experiment [4] (20 mg/l soil), 4 in experiment [4] (40 mg/l soil) and 4 in experiment [4] (80 mg/l soil). The figures for the “number of sound peas” value in experiment [4] (20 mg/l soil), in experiment [4] (40 mg/l soil) and in experiment [4] (80 mg/l soil) were 12, 16 and 19, respectively. In addition, the “% activity” value in experiment [1] (setting [12]) stood at 86%; in experiment [1] (setting [7]) it was 93%; in experiment [1] (setting [8]) it was 94%; in experiment [6] (20 g active agent per 100 kg), 95%; in experiment [6] (50 g active agent per 100 kg), 100%; in experiment [3] (20 g active agent per 100 kg), 96%. Besides, the “% activity” value in experiment [3] (50 g active agent per 100 kg) is on record as 100%.
On to `C=CCNC(=O)c1nnc([S+](C)[O-])s1` (stereo not shown) [5-methylsulfinyl-1,3,4-thiadiazole-2-carboxylic acid-allylamide], for which the “% activity” value in experiment [5] (setting [10]) turned out to be 100%; in experiment [1] (setting [8]), 90%; in experiment [6] (10 g active agent per 100 kg), 94%; in experiment [6] (20 g active agent per 100 kg), 99%; in experiment [6] (50 g active agent per 100 kg), 100%; in experiment [3] (10 g active agent per 100 kg) it was 99.2%. Further, the “% activity” value in experiment [3] (20 g active agent per 100 kg) and in experiment [3] (50 g active agent per 100 kg) was 100% in each case. Further, the “root evaluation (1-4)” value in experiment [4] (20 mg/l soil), in experiment [4] (40 mg/l soil) and in experiment [4] (80 mg/l soil) was 4 throughout. The “number of sound peas” value in experiment [4] (20 mg/l soil) came to 20; in experiment [4] (40 mg/l soil), 19; in experiment [4] (80 mg/l soil), 18.
Regarding `C[S+]([O-])c1nnc(C(=O)NC2CC2)s1` (stereo not shown) [5-methylsulfinyl-1,3,4-thiadiazole-2-carboxylic acid-cyclopropylamide], the “root evaluation (1-4)” value in experiment [4] (20 mg/l soil) is given as 1; in experiment [4] (40 mg/l soil), 4; in experiment [4] (80 mg/l soil), 4. The “number of sound peas” value amounted to 15 in experiment [4] (20 mg/l soil), 20 in experiment [4] (40 mg/l soil) and 20 in experiment [4] (80 mg/l soil). Also, the “% activity” value in experiment [1] (setting [7]) is listed as 80%; in experiment [1] (setting [8]) it was 90%; in experiment [6] (10 g active agent per 100 kg) it was 72%; in experiment [6] (20 g active agent per 100 kg) it was 98%; in experiment [6] (50 g active agent per 100 kg), 99%; in experiment [3] (20 g active agent per 100 kg), 98%. Besides, the “% activity” value in experiment [3] (50 g active agent per 100 kg) was 100%.
For the compound `CS(=O)(=O)c1nnc(C(=O)N2CCC2)s1` [5-methylsulfonyl-1,3,4-thiadiazole-2-carboxylic acid-N,N-trimethylenamide], the “root evaluation (1-4)” value in experiment [4] (20 mg/l soil), in experiment [4] (40 mg/l soil) and in experiment [4] (80 mg/l soil) was 4 throughout. Moreover, the “number of sound peas” value in experiment [4] (20 mg/l soil) stood at 19; in experiment [4] (40 mg/l soil) it was 20; in experiment [4] (80 mg/l soil), 20. In addition, the “% activity” value in experiment [1] (setting [7]) was 84%; in experiment [1] (setting [8]), 90%; in experiment [3] (20 g active agent per 100 kg) it was 99%; in experiment [3] (50 g active agent per 100 kg), 100%.
Take `CCC(C)S(=O)(=O)c1nnc(C(N)=O)s1` (stereo not shown) [5-sec.-butylsulfonyl-1,3,4-thiadiazole-2-carboxamide]: the “% activity” value in experiment [5] (setting [10]) is on record as 94%; in experiment [6] (50 g active agent per 100 kg), 97%.
